Earlier results as cited in patent US6682747B1 (Boehringer Ingelheim Pharma KG, priority 1998, dated 2004).

Settings: buffered aqueous systems, pH 2-4

For Cc1cnc(NC(=O)C2=C(O)c3ccccc3S(=O)(=O)N2C)s1 [meloxicam], the solubility is listed as “less than 0.5 μg/ml”.
